Results taken from ChEMBL document CHEMBL1159339, “Oxygenated analogues of gorgosterol and ergosterol from the soft coral Capnella lacertiliensis” (2003).

Columns and labels:
Microbotryum violaceum [1] = experiment: Antimicrobial activity against Microbotryum violaceum at 10 ug; assay type: functional; details: read-out: IZ
[2] = target: Tyrosine-protein kinase Lck (Homo sapiens) (UniProt P06239); experiment: Inhibition of p56 LCK at 200 ug/ml; parameters: scale not given: the % may be the effect or the level left
[3] = test system: Aspergillus pseudoglaucus; experiment: Antimicrobial activity against Eurotium repens at 10 ug; assay type: functional; details: read-out: IZ
Microbotryum violaceum [4] = experiment: Antimicrobial activity against Microbotryum violaceum at 25 ug; assay type: functional; details: read-out: IZ
Microbotryum violaceum [5] = experiment: Antimicrobial activity against Microbotryum violaceum at 20 ug; assay type: functional; details: read-out: IZ
[6] = test system: Aspergillus pseudoglaucus; experiment: Antimicrobial activity against Eurotium repens at 20 ug; assay type: functional; details: read-out: IZ

Chain of Tyrosine-protein kinase Lck (Homo sapiens) (P06239 2-509 limits assumed): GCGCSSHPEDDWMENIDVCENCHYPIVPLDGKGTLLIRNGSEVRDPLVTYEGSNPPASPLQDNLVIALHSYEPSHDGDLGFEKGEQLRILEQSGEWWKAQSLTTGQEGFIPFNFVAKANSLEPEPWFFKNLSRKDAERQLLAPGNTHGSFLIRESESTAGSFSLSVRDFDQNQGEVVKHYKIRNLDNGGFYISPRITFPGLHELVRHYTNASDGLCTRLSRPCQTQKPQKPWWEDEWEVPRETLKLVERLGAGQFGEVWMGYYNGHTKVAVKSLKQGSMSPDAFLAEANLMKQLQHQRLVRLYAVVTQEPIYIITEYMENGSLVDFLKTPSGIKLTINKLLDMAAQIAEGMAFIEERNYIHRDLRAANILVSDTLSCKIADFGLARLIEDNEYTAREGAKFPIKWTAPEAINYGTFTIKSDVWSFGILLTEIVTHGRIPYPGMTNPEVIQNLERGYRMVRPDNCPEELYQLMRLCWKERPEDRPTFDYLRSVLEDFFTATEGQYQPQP

| Compound | zone of inhibition at 10 µg/disc (Microbotryum violaceum [1]) | Activity [2] | other results |
| --- | --- | --- | --- |
| CC(=O)O[C@@H]1C[C@H]2[C@@H]([C@H](O)C=C3C[C@@H](O)CC[C@@]32CO)[C@@H]2CC[C@H]([C@H](C)[C@H]3C[C@]3(C)[C@H](C)C(C)C)[C@@]12C | 2 mm | – | – |
| CC(=O)O[C@@H]1C[C@H]2[C@@H](CC=C3C[C@@H](O)CC[C@@]32C)[C@@H]2CC[C@H]([C@H](C)CC(O)[C@H](C)C(C)C)[C@@]12C (some centres undefined) | 3 mm | 42% | – |
| CC(=O)O[C@@H]1[C@H]2[C@@H](CC=C3C[C@@H](O)CC[C@@]32C)[C@@H]2CC(O)[C@H]([C@H](C)CC[C@H](C)C(C)C)[C@@]2(C)[C@@H]1O (some centres undefined) | 3 mm | 47% | zone of inhibition at 10 µg/disc [3]: 2 mm |
| CC(=O)O[C@@H]1[C@H](O)[C@H]2[C@@H](CC=C3C[C@@H](O)CC[C@@]32C)[C@@H]2CC(O)[C@H]([C@H](C)CC[C@H](C)C(C)C)[C@@]12C (some centres undefined) | – | – | zone of inhibition at 25 µg/disc (Microbotryum violaceum [4]): 1 mm |
| CC(=O)O[C@@H]1C[C@H]2[C@@H]([C@H](O)C=C3C[C@@H](O)CC[C@@]32C)[C@@H]2CC[C@H]([C@H](C)[C@H]3C[C@]3(C)[C@H](C)C(C)C)[C@@]12C | – | – | zone of inhibition at 20 µg/disc (Microbotryum violaceum [5]): 1 mm; zone of inhibition at 20 µg/disc [6]: 2 mm |
